Legend:
blood glucose levels [1] = assay: Blood glucose levels in ob/ob mice; type: in vivo, mouse; conditions: ad lib fed ob/ob mice, atglistatin 120 mg/kg p.o
Procedure: (§1) Mice were kept in 12 h light/dark cycle in a temperature-controlled environment. Mice had free access to food and water unless noted otherwise. C57/B6 mice background was used unless noted otherwise. C57BL/6J and ob/ob (000632-B6. Cg-Lepob/J) male mice were obtained from Jackson Laboratory. PDE4D knock-out mice (034588-UCD) were obtained from MMRRC. For diet-induced obesity (DIO) studies, mice were fed a high fat diet (HFD) (60% fat, F3282; Bio-Serv) for minimum of 12 weeks to induce insulin resistance when diet-induced obese model is used. Insulin levels and blood glucose levels were monitored to confirm insulin resistance. To generate adipose-specific FGFR1 deletion, adiponectin-cre mice (B6; FVB-Tg (Adipoq-cre)1Evdr/J; Stock: 010803) were crossed to Fgfr1 flox/flox (B6.129S4-Fgfr1tm5.1Sor/J; Stock: 00767) mice. For AAV mediated expression of target proteins in adipose tissue, 5×10E+11 genomic copies of AAV were injected via tail vein or retro-orbital route.
(§2) Recombinant FGF1 (rFGF1) was dissolved in phosphate-buffered saline (PBS) at a concentration of 0.2 mg/ml and was injected subcutaneously at a 0.5 mg kg^−1 dose. Blood glucose was monitored at indicated time points after injection. For initial measurements (2-4 h) food was removed after injection to exclude any indirect effects stemming from anorexigenic effects of FGF1. PDE4 inhibitor roflumilast stock in DMSO was diluted at 1 mg/ml in 30% captisol, pH 10 and delivered to mice thorough oral gavage at 5 mg kg^−1 dose. PDE3 inhibitor cilostamide stock in DMSO was diluted at 2 mg/ml in 30% captisol and delivered through intraperitoneal injection at 10 mg kg^−1 dose.

[2] = biological target: FGFR1 on mouse adipocytes (mouse) (UniProt P16092); assay: cell-based or functional assay
Chain of UniProt P16092 (P16092 22-822): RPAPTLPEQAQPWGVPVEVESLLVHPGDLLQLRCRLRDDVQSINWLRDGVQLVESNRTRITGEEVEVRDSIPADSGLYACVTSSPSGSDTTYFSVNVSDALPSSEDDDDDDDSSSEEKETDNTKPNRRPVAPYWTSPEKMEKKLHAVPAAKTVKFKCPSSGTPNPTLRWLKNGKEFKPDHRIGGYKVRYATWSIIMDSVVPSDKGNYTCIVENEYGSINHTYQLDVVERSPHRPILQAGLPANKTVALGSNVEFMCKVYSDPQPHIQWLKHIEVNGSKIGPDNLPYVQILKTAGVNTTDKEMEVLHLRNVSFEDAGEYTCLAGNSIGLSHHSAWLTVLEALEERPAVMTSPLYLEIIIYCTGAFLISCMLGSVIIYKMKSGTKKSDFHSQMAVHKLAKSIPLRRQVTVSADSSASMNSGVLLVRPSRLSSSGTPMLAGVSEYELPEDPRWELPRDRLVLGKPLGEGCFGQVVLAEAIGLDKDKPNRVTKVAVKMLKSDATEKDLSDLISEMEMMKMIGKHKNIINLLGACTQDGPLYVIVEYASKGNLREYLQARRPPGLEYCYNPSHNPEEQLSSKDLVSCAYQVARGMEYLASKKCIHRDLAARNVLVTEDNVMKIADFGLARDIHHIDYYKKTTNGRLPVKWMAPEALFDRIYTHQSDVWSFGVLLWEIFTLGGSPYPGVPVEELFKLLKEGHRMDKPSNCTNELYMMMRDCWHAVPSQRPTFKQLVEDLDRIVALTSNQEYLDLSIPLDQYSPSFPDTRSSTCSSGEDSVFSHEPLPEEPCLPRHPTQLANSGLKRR

blood glucose levels [3] = assay: Blood glucose levels in DIO mice; type: in vivo, mouse; conditions: roflumilast 5 mg/kg p.o.
Procedure: as §1, §2

serum FFA levels = assay: Serum FFA levels in DIO mice; type: in vivo, mouse; conditions: ad lib fed DIO mice, roflumilast 5 mg/kg p.o., 1 h
Procedure: as §1, §2

[4] = tested on: HSL phosphorylation at S660; assay: Western blot of pHSL-S660 in 3T3-L1 adipocytes; type: cell-based; conditions: basal and ISO-stimulated cells, roflumilast 2 μM
Procedure: Tissues were lysed in cold lysis buffer (50 mM Tris, pH 7.5, 150 mM NaCl, 1% NP40, 0.5% NaDoc, 0.1% SDS, 5% glycerol, 1 mM EDTA, protease and phosphatase inhibitors (complete and PhosSTOP (Roche)) by homogenization by bead-beater for 30 s. Samples were cleared for 10 min at 18,000 g at 4° C. and the middle clear phase was transferred to new tubes. A second 30 min centrifugation was performed and the middle clear phase was transferred to new tubes. Five ul protein extract was used for BCA assay to determine protein concentration. Samples were boiled in Laemmli buffer. SDS-PAGE and blotting were performed using gradient gels and Trans-Blot Turbo Transfer System (Bio-Rad). Antibodies used were PDE4D (12918-1-AP, Proteintech), pHSL-660 (4126S, Cell signaling), HSL (4107S, Cell Signaling), tubulin (CP06, Millipore Sigma), and GFP (A01388, GenScript). PDE4D3-pS44 phospho-specific antibody was generated using PDE4D3-S44 FRRHpSWISFDVDNGTSAGR peptide (SEQ ID NO: 20) (Mackenzie et al., 2002) by Pocono Rabbit Farm, using 70-day rabbit antibody production protocol and purified via affinity purification. Primary antibodies were incubated for 2 h at room temperature (RT) or overnight (ON) at 4° C. Blots were developed using SuperSignal West Pico PLUS Chemiluminescent Substrate (ThermoFisher Scientific) and imaged with BioRad GelDoc system.

[5] = Serum insulin levels in DIO mice; type: in vivo, mouse; conditions: ad lib fed DIO mice, roflumilast 5 mg/kg p.o., 1 h
Procedure: as §1
Recombinant FGF1 (rFGF1) was dissolved in phosphate-buffered saline (PBS) at a concentration of 0.2 mg/ml and was injected subcutaneously at a 0.5 mg kg^−1 dose. Blood glucose was monitored at indicated time points after injection. For initial measurements (2-4 h) food was removed after injection to exclude any indirect effects stemming from anorexigenic effects of FGF1. […]

[6] = biological target: T1, GFP-tagged perilipin (perilipin-GFP), Q8CGN5
T1 chain: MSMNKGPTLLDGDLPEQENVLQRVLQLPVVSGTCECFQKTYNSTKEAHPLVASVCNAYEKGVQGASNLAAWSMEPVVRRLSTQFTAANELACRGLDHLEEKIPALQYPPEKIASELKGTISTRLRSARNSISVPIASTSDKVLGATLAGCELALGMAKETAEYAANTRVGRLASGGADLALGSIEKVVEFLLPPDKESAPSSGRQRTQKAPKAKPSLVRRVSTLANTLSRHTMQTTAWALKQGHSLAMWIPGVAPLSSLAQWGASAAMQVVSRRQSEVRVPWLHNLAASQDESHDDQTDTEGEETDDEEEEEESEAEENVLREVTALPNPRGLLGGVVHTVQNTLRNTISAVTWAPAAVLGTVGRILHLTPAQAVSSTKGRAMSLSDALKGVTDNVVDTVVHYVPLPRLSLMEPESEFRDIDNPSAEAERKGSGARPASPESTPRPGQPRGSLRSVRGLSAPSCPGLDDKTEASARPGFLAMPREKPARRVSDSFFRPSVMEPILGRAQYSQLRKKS

For `CN(C)C(=O)Nc1cccc(-c2ccc(N(C)C)cc2)c1` [Atglistatin, reference compound], the blood glucose levels (blood glucose levels [1]) was “rapidly lowered blood glucose levels”.

Work on Recombinant FGF1 (rFGF1) (ligand) yielded a serum FFA levels in DIO adR1WT and adR1KO mice [2] of 30%.

With `O=C(Nc1c(Cl)cncc1Cl)c1ccc(OC(F)F)c(OCC2CC2)c1` [roflumilast, reference compound] the blood glucose (blood glucose levels [3]; ad lib fed DIO mice) was “transiently increased”, the blood glucose levels (blood glucose levels [3]; fasted DIO mice) was “more sustained increase in blood glucose levels” and the “serum FFA” value (serum FFA levels) was “transiently increased”. For the same molecule, the “ability of FGF1 to suppress HSL phosphorylation in presence of roflumilast” value [4] was “lost” and the insulin levels [5] was “transiently increased”.

B1: mCherry-tagged HSL (HSL-mCherry) (protein)
chain: MDLRTMTQSLVTLAEDNMAFFSSQGPGETARRLSNVFAGVREQALGLEPTLGQLLGVAHHFDLDTETPANGYRSLVHTARCCLAHLLHKSRYVASNRKSIFFRASHNLAELEAYLAALTQLRAMAYYAQRLLTINRPGVLFFEGDEGLTADFLQEYVTLHKGCFYGRCLGFQFTPAIRPFLQTLSIGLVSFGEHYKRNETGLSVTASSLFTGGRFAIDPELRGAEFERIIQNLDVHFWKAFWNITEIEVLSSLANMASTTVRVSRLLSLPPEAFEMPLTSDPRLTVTISPPLAHTGPAPVLARLISYDLREGQDSKVLNSLAKSEGPRLELRPRPHQAPRSRALVVHIHGGGFVAQTSKSHEPYLKNWAQELGVPIFSIDYSLAPEAPFPRALEECFFAYCWAVKHCDLLGSTGERICLAGDSAGGNLCITVSLRAAAYGVRVPDGIMAAYPVTTLQSSASPSRLLSLMDPLLPLSVLSKCVSAYSGTEAEDHFDSDQKALGVMGLVQRDTSLFLRDLRLGASSWLNSFLELSGRKPQKTTSPTAESVRPTESMRRSVSEAALAQPEGLLGTDTLKKLTIKDLSNSEPSDSPEMSQSMETLGPSTPSDVNFFLRPGNSQEEAEAKDEVRPMDGVPRVRAAFPEGFHPRRSSQGVLHMPLYTSPIVKNPFMSPLLAPDSMLKTLPPVHLVACALDPMLDDSVMFARRLRDLGQPVTLKVVEDLPHGFLSLAALCRETRQATEFCVQRIRLILTPPAAPLN
In the case of B1, the “co-localization of perilipin-GFP and HSL-mCherry in live 3T3-L1 adipocytes (fluorescence overlap, confocal microscopy)” value [6] is reported as “FGF1 reduced the isoproterenol-induced co-localization of perilipin-GFP and HSL-mCherry”.
